Publication PMC4237514, “Novel amino-β-lactam derivatives as potent cholesterol absorption inhibitors” (European Journal of Medicinal Chemistry, 2014)

Assays:
Assay type in all cases: cell-based
[1] = MTT cytotoxicity assay in MDCKII wild type cells; conditions: dog, MDCKII wild type cells, read-out: LC50, MDCKII
Procedure: (§1) Cytotoxicity of amino alcohols 5, 6 and their diastereoisomeric mixture 5/6 was analyzed using MTT cell proliferation assay and the LC50 values were determined in MDCKII wild type, hNPC1L1/MDCKII, and HepG2 cells (Table 2). MDCKII cells stably expressing human Niemann-Pick C1-like protein 1 (hNPC1L1/MDCKII) (Figure S1) are a pharmacologically validated system for investigating NPC1L1-mediated cholesterol uptake. The LC50 values were higher than 100 μM and considered nontoxic in all three cell lines. […] In addition, we tested the in vitro cytotoxicity of ezetimibe 1 and compounds 5, 6, and 5/6 (70:30) in combination with micelles and found all LC50 values to be above 100 μM (Figure S2).
(§2) Madin–Darby Canine Kidney II (MDCKII) cells, MDCKII cells stably expressing human NPC1L1 (hNPC1L1/MDCKII), and human HepG2 liver cells were maintained in DMEM (Dulbecco's Modified Eagle Medium, Invitrogen, USA) containing 100 units/mL penicillin and 100 μg/mL streptomycin supplemented with 10% FCS (Sigma–Aldrich, Germany). The cells were grown at 37 °C in a humidified 5% CO2 incubator. Stable transfection of MDCKII cells with human NPC1L1 protein was performed using Lipofectamine LTX (Invitrogen, USA) according to the manufacturer's protocol. Selection with 1 mg/mL G418 (Sigma–Aldrich, Germany) was started 2 days after transfection. The concentration of G418 was decreased to 500 μg/mL after 14 days. Stably transfected cells were maintained in DMEM containing 100 units/mL penicillin and 100 μg/mL streptomycin supplemented with 10% FCS and 500 μg/mL G418.
(§3) MDCKII, hNPC1L1/MDCKII, and HepG2 cells were seeded in 96-well microtiter plates on day 0 at densities of 3000 cells/well. On day 1, tested compounds (73 mM stock solution in DMSO) were added in five consecutive 10-fold dilutions (10^−8 to 10^−4 mol/L) and incubated for 72 h. Cytotoxicity of the compounds was assessed on day 4 by the MTT cell proliferation assay (Sigma–Aldrich, Germany) which detects mitochondrial dehydrogenase activity in viable cells. The results are expressed as LC50 and the values for each compound were calculated from dose–response curves using linear regression analysis. Each concentration was tested in quadruplicate in three independent experiments. Toxicity of the compounds in combination with micelles was also tested using the same method. MDCKII and hNPC1L1/MDCKII were seeded in 96-well microtiter plates (150 μL medium/well) at a density of 2 × 10^5 cells/mL medium 24 h before the experiment. Micelles were prepared according to the modified method reported by Field et al.. In brief, 0.25 mM oleic acid, 50 μM cholesterol, 10 μM compactin, 50 μM mevalonate, 5 mM Na-taurocholate (Sigma–Aldrich, Germany) in DMEM/10% FCS were mixed and sonicated. Following the micellar formation, compounds 1, 5, 6, and 5/6 (70:30) (73 mM stock solution in DMSO) were added to the medium and vortexed to obtain the final concentrations of the compounds (25, 50, 100, 150, 200 μM) and applied to the cells for 1 h. Thereafter, cytotoxicity was determined using the MTT assay.

[2] = MTT cytotoxicity assay in hNPC1L1/MDCKII cells; conditions: dog, MDCKII cells stably expressing human NPC1L1 (hNPC1L1/MDCKII), read-out: LC50, hNPC1L1/MDCKII
Procedure: as §1, §2
as §3, with “Following the micellar formation, compounds 1, 5, 6, and 5/6 (70:30) (73 mM stock solution in DMSO) were added to the medium and vortexed to obtain the final concentrations of the compounds (25, 50, 100, 150, 200 μM) and applied to the cells for 1 h.” left out

[3] = MTT cytotoxicity in combination with micelles; conditions: dog, MDCKII wildtype and hNPC1L1/MDCKII cells, Figure S2, read-out: LC50 in combination with micelles
Procedure: as §3
Figure S2. In vitro cytotoxicity of the compounds 5, 6, and 5/6 (70:30) in combination with micelles. Cytotoxicity of the newly synthesized compounds was determined in (A) MDCKII wildtype and (B) hNPC1L1/MDCKII cells. The cells were incubated with the indicated concentrations of the compounds in Medium B (0.25 mM oleic acid, 50 μM free cholesterol, 10 μM compactin, 50 μM mevalonate, 5 mM Na-taurocholate in DMEM supplemented with 5% LPDS) for 1 h. The results are expressed as percentage of the survival of cells treated with the compound compared to untreated cells. Data represent mean ± S.E.M. of three independent experiments.

Row | SMILES | CC50 at 72 h [1] | CC50 at 72 h [2] | CC50 at 1 h [3] | CC50 at 96 h ([2]; 72 h)
1 | O=C1[C@H](NC[C@H](O)c2ccc(F)cc2)[C@@H](c2ccc(O)cc2)N1c1ccc(F)cc1 [Compound 5] | > 100 µM | > 100 µM | > 100 µM | –
2 | O=C1[C@H](CC[C@H](O)c2ccc(F)cc2)[C@@H](c2ccc(O)cc2)N1c1ccc(F)cc1 [Compound 1, ezetimibe, reference compound] | > 100 µM | – | > 100 µM | 62.3 µM
3 | O=C1[C@H](NC[C@@H](O)c2ccc(F)cc2)[C@@H](c2ccc(O)cc2)N1c1ccc(F)cc1 [Compound 6, (3R,4R)-3-[(2S)-2-(4-fluorophenyl)-2-hydroxyethylamino]-1-(4-fluorophenyl)-4-(4-hydroxyphenyl)azetidin-2-one] | > 100 µM | > 100 µM | > 100 µM | –
4 | O=C1[C@H](NCC(O)c2ccc(F)cc2)[C@@H](c2ccc(O)cc2)N1c1ccc(F)cc1 (mixture of isomers) [5/6 (70:30), (3R,4R)-3-[(2R/S)-2-(4-fluorophenyl)-2-hydroxyethylamino]-1-(4-fluorophenyl)-4-(4-hydroxyphenyl)azetidin-2-one] | > 100 µM | > 100 µM | > 100 µM | –
